Source: patent US7135615B2, “Chromosome doubling method” (The Curators of the University of Missouri, priority 2001, dated 2006)
Marks after values point to notes of the source that are not given here.

Experiments:
[1] = system: maize haploid seedlings of origin Oh43 × Mo17; test: doubled haploid production trial, Oh43 × Mo17 haploids (Example 4); conditions: 600 kPa, 2 days; for Ear: No. of kernels produced/ear: selfed
Method: (§1) Ten to nineteen plants were treated for each plot. Self pollinations were conducted on these treated haploids if there were fertile sectors on the tassel. Pollen grains were collected carefully on a sheet of paper and transferred to the silks repeatedly. Silks and husks were cut back prior to pollination in order to permit maximum seed set. The numbers of fertile tassel and ear sectors, as well as the numbers of anthers and selfed kernels were recorded. Statistical analyses were as described above.

[2] = system: maize haploid seedlings of origin W22 × W23; test: doubled haploid production trial, W22 × W23 haploids (Example 4); conditions: 600 kPa, 2 days; for Ear: No. of kernels produced/ear: selfed
Method: as §1

[3] = system: maize haploid seedlings of various origin; test: doubled haploid production trial, combined data (Total/Average) of haploids of eight different origins; conditions: for Ear: Plants with kernels after selfing % / Tassel: No. of fertile anthers extruded/tassel / Tassel: No. of fertile sectors/tassel / Tassel: Plants with fertile sectors % / Ear: Plants with kernels after selfing No. / Tassel: Plants with fertile sectors No. / No. of plants Survived / Ear: No. of kernels produced/ear: Total/Average of eight origins, 600 kPa, 2 days; for Ear: No. of kernels produced/ear: selfed
Method: as §1

[N-]=[N+]=O [nitrous oxide gas, nitrous oxide]
Ear: Plants with kernels after selfing % ([1]; 5 leaf stage): 27 n.s. %
Tassel: No. of fertile anthers extruded/tassel ([1]; 5 leaf stage): 4.2 /tassel
Tassel: Plants with fertile sectors % ([1]; 5 leaf stage): 73** %
Ear: Plants with kernels after selfing No. ([1]; 5 leaf stage, 11 survived): 3
Tassel: Plants with fertile sectors No. ([1]; 5 leaf stage, 11 survived): 8
No. of plants Survived ([1]; 5 leaf stage, 11 treated): 11
Ear: No. of kernels produced/ear ([1]; 5 leaf stage): 0.5 n.s. /ear
Ear: Plants with kernels after selfing % ([1]; 6 leaf stage): 38%
Tassel: No. of fertile anthers extruded/tassel ([1]; 6 leaf stage): 29.8** /tassel
Tassel: No. of fertile sectors/tassel ([1]; 6 leaf stage): 2.5** /tassel
Tassel: Plants with fertile sectors % ([1]; 6 leaf stage): 100** %
Ear: Plants with kernels after selfing No. ([1]; 6 leaf stage, 13 survived): 5
Tassel: Plants with fertile sectors No. ([1]; 6 leaf stage, 13 survived): 13
No. of plants Survived ([1]; 6 leaf stage, 14 treated): 13
Ear: No. of kernels produced/ear ([1]; 6 leaf stage): 3.8 /ear
Ear: Plants with kernels after selfing % ([1]; 7 leaf stage): 13%
Tassel: No. of fertile anthers extruded/tassel ([1]; 7 leaf stage): 8.3* /tassel
Tassel: No. of fertile sectors/tassel ([1]; 7 leaf stage): 1.8** /tassel
Tassel: Plants with fertile sectors % ([1]; 7 leaf stage): 73** %
Ear: Plants with kernels after selfing No. ([1]; 7 leaf stage, 15 survived): 2
Tassel: Plants with fertile sectors No. ([1]; 7 leaf stage, 15 survived): 11
No. of plants Survived ([1]; 7 leaf stage, 19 treated): 15
Ear: No. of kernels produced/ear ([1]; 7 leaf stage): 0.6 /ear
Ear: Plants with kernels after selfing % ([2]; 5 leaf stage): 45 n.s. %
Tassel: No. of fertile anthers extruded/tassel ([2]; 5 leaf stage): 27.6 n.s /tassel
Tassel: No. of fertile sectors/tassel ([2]; 5 leaf stage): 1.1 n.s. /tassel
Tassel: Plants with fertile sectors % ([2]; 5 leaf stage): 64 n.s. %
Ear: Plants with kernels after selfing No. ([2]; 5 leaf stage, 11 survived): 5
Tassel: Plants with fertile sectors No. ([2]; 5 leaf stage, 11 survived): 7
No. of plants Survived ([2]; 5 leaf stage, 12 treated): 11
Ear: No. of kernels produced/ear ([2]; 5 leaf stage): 9.5 n.s. /ear
Ear: Plants with kernels after selfing % ([2]; 6 leaf stage): 40%
Tassel: No. of fertile anthers extruded/tassel ([2]; 6 leaf stage): 18.0 /tassel
Tassel: No. of fertile sectors/tassel ([2]; 6 leaf stage): 2.1 /tassel
Tassel: Plants with fertile sectors % ([2]; 6 leaf stage): 60%
Ear: Plants with kernels after selfing No. ([2]; 6 leaf stage, 10 survived): 4
Tassel: Plants with fertile sectors No. ([2]; 6 leaf stage, 10 survived): 6
No. of plants Survived ([2]; 6 leaf stage, 12 treated): 10
Ear: No. of kernels produced/ear ([2]; 6 leaf stage): 3.3 /ear
Ear: Plants with kernels after selfing % ([2]; 7 leaf stage): 43%
Tassel: No. of fertile anthers extruded/tassel ([2]; 7 leaf stage): 7.1 /tassel
Tassel: No. of fertile sectors/tassel ([2]; 7 leaf stage): 1.9 /tassel
Tassel: Plants with fertile sectors % ([2]; 7 leaf stage): 71%
Ear: Plants with kernels after selfing No. ([2]; 7 leaf stage, 7 survived): 3
Tassel: Plants with fertile sectors No. ([2]; 7 leaf stage, 7 survived): 5
No. of plants Survived ([2]; 7 leaf stage, 8 treated): 7
Ear: No. of kernels produced/ear ([2]; 7 leaf stage): 11.4 /ear
Ear: Plants with kernels after selfing % ([3]; 5 leaf stage): 36** %
Tassel: No. of fertile anthers extruded/tassel ([3]; 5 leaf stage): 32.3** /tassel
Tassel: No. of fertile sectors/tassel ([3]; 5 leaf stage): 0.9** /tassel
Tassel: Plants with fertile sectors % ([3]; 5 leaf stage): 61** %
Ear: Plants with kernels after selfing No. ([3]; 5 leaf stage, 95 survived): 33
Tassel: Plants with fertile sectors No. ([3]; 5 leaf stage, 95 survived): 58
No. of plants Survived ([3]; 5 leaf stage, 102 treated): 95
Ear: No. of kernels produced/ear ([3]; 5 leaf stage): 4.4** /ear
Ear: Plants with kernels after selfing % ([3]; 6 leaf stage): 44%
Tassel: No. of fertile anthers extruded/tassel ([3]; 6 leaf stage): 74.3 /tassel
Tassel: No. of fertile sectors/tassel ([3]; 6 leaf stage): 2.1** /tassel
Tassel: Plants with fertile sectors % ([3]; 6 leaf stage): 78** %
Ear: Plants with kernels after selfing No. ([3]; 6 leaf stage, 90 survived): 39
Tassel: Plants with fertile sectors No. ([3]; 6 leaf stage, 90 survived): 70
No. of plants Survived ([3]; 6 leaf stage, 97 treated): 90
Ear: No. of kernels produced/ear ([3]; 6 leaf stage): 8.6** /ear
Ear: Plants with kernels after selfing % ([3]; 7 leaf stage): 34** %
Tassel: No. of fertile anthers extruded/tassel ([3]; 7 leaf stage): 63.5** /tassel
Tassel: No. of fertile sectors/tassel ([3]; 7 leaf stage): 2.8** /tassel
Tassel: Plants with fertile sectors % ([3]; 7 leaf stage): 74** %
Ear: Plants with kernels after selfing No. ([3]; 7 leaf stage, 90 survived): 29
Tassel: Plants with fertile sectors No. ([3]; 7 leaf stage, 90 survived): 67
No. of plants Survived ([3]; 7 leaf stage, 101 treated): 90
Ear: No. of kernels produced/ear ([3]; 7 leaf stage): 7.0** /ear
effect of treatment on fertility ([3]; haploids derived from A619, B73 and W22×W23): no significant effect
treated haploids that produced double haploid progenies after self pollination ([3]; haploids induced from Oh43, A619×B73, and Oh43×Mol7): about 30%
